Test results: paper PMC5895803, “Inhibition of cancer stem cell like cells by a synthetic retinoid” (Nature Communications, 2018)
Values after ≈ are worked out from the molar mass of the structure shown. Blank lines part the entries; values can stand above or below the molecule they belong to.

Assays:
[1] = parameters: method as in doi:10.1016/j.jaad.2003.11.002; conditions: cited from earlier work
[2] = system: B16-F1 TRCs; test: Colony growth of B16-F1 TRCs in 90-Pa 3D soft fibrin gels; assay type: cell-based, murine; conditions: for Rescue of TRC growth from inhibitory effects of WYC-209 by pretreatment: pretreated 3 h before 0.1 or 1 μM WYC-209, day 5; for inhibition at 10 µM: B16-F1, 10 μM; for Rescue of TRC growth from inhibitory effects of Tazarotene by pretreatment: pretreated 3 h before 0.1 or 1 μM Tazarotene
[3] = target: mouse RARs; parameters: method as in earlier work; conditions: ref 1 (supplement); read-out: published Kd values to mouse RARs; cited from earlier work
[4] = system: B16-F1 TRCs; test: Cell cycle analysis (BrdU flow cytometry), S phase of TRCs; assay type: cell-based, murine; conditions: 10 μM, 24 hours
Protocol: For Annexin-V and PI staining to quantify cell apoptosis, treated TRCs were isolated from 3D fibrin gel by using 5 mg mL^−1 Dispase II (Sigma), cells were labeled with FITC-conjugated Annexin-V and PI according to the manufacturer’s instruction (Biolegend). Data were acquired on a BD Cantoll (BD biosciences) and analyzed with FlowJo software. For BrdU staining to quantify cell proliferation, cells were labeled with FITC-conjugated anti-BrdU antibody according to the manufacturer’s instruction (FITC BrdU Flow Kit, BD Biosciences) and then data were acquired on an Accuri C6 (BD Biosciences) and analyzed with BD Accuri C6 software.
Supplementary Figure 13. WYC-209 blocks S phase of TRCs. Different cancer cell lines cultured in 3D soft fibrin gel on day 0, then treated with 0.1, 1, or 10 μM WYC-209, WYC-209A, WYC-209B on day 4, isolated cells after 24 hours and labeled with FITC-conjugated anti-BrdU antibody for cell cycle analysis, 10 μM ATRA and Tazarotne as positive controls. (a) Representative images of flow cytometry in different conditions. (b) Quantification of S phase ratio in different conditions. Mean ± s.e.m.; n=3 independent experiments; * P<0.05; ** P<0.01; *** P<0.001 (Student’s t-test).
(1 picture or pasted object on this page, not shown here)

[5] = Water solubility; conditions: pH 7.4, aqueous buffer, kinetic from dmso stock
[6] = system: melanoma TRCs; parameters: method as in PMID 25099074; conditions: high concentrations (1 and 100 μM); cited from earlier work
[7] = target: T1, CYP 2C19 (Homo sapiens, UniProt P33261); test: Cytochromes enzyme inhibition assay, human liver microsomes; assay type: in vitro ADME; conditions: substrate S-mephenytoin (35 µM)
T1 construct: from tissue; host or cells: human liver microsomes

[8] = system: human malignant melanoma A375; test: Colony growth of A375 TRCs in 90-Pa fibrin gels; assay type: cell-based; conditions: pretreated 3 h before 0.1 or 1 μM WYC-209, day 7
Protocol: Salmon fibrinogen and thrombin were purchased from Reagent Proteins (CA, USA). 3D fibrin gels were prepared as described previously[5],[6]. In brief, fibrinogen was diluted into 2 mg mL^−1 with T7 buffer (pH 7.4, 50 mM Tris, 150 mM NaCl). Cells were detached from 2D rigid dishes and cell density was adjusted to 10^4 cells per mL. Fibrinogen and cell solution mixture were made by mixing the same volume of fibrinogen solution and cell solution, resulting in 1 mg mL^−1 fibrinogen and 5000 cells per mL in the mixture fibrin gels. A volume of 50 μL cell/fibrinogen mixture was seeded into each well of 96-well plate and mixed well with pre-added 1 μL thrombin (100 U mL^−1). The cell culture plate was then incubated in 37 °C cell culture incubator for 10 min. Finally, 200 μL of DMEM medium containing 10% FBS and antibiotics was added.

[9] = Mus musculus, treated on day 0, day 5

T1 sequence (P33261 whole entry): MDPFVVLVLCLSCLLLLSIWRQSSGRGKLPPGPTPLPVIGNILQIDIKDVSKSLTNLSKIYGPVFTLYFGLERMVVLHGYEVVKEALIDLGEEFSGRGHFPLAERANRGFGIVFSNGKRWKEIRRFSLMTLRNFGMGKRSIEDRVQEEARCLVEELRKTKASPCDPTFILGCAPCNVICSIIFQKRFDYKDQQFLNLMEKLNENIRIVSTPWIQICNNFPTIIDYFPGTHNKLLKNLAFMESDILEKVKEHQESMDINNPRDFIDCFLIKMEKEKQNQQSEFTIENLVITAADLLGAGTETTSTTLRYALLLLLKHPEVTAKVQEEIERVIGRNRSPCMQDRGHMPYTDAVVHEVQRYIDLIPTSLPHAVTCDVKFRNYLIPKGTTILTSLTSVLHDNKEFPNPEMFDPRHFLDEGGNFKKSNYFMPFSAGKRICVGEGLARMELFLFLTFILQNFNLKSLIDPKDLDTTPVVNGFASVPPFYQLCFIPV

SMILES: CC1(C)CC[S+]([O-])c2ccc(C#Cc3ccc(C(=O)O)cn3)cc21 (centres unmarked) [AGN 190844]
Activity after oxidation of the sulfur atom on Tazarotene [1]: loses its activity

SMILES: CCc1ccc(C2=CC(C)(C)Sc3ccc(C#Cc4ccc(C(=O)O)cc4)cc32)cc1 [AGN-194310, reference compound]
Rescue of TRC growth from inhibitory effects of WYC-209 by pretreatment [2]: rescued the TRC growth

SMILES: CC1=C(/C=C/C(C)=C/C=C/C(C)=C/C(=O)O)C(C)(C)CCC1 [ATRA, all-trans retinoic acid, reference compound]
Kd [3]: 0.2 to 0.36 nM
inhibition at 10 µM [2, 9]: 80%
Decrease of S phase of TRCs [4]: ~55%

SMILES: CC1(C)CC=C(c2cnc3ccccc3c2)c2cc(C(=O)Nc3ccc(C(=O)O)cc3)ccc21 [BMS195614, reference compound]
Impact of antagonist alone on TRC growth [2]: no impact on TRC growth
Rescue of TRC growth from inhibitory effects of Tazarotene by pretreatment [2]: rescuing effect was minimal
Rescue of TRC growth from inhibitory effects of WYC-209 by pretreatment [2]: rescued the TRC growth

SMILES: COCCOCOc1cc2ccc(-c3ccc(C(=O)O)cc3)cc2cc1C12CC3CC(CC(C3)C1)C2 [CD2665, reference compound]
Impact of antagonist alone on TRC growth [2]: no impact on TRC growth
Rescue of TRC growth from inhibitory effects of Tazarotene by pretreatment [2]: rescuing effect was minimal
Rescue of TRC growth from inhibitory effects of WYC-209 by pretreatment [2]: rescued the TRC growth

solubility at 1 h ([5]; PBS (pH 7.4)): 49.3 µM (≈ 26.2 µg/mL)
SMILES: CC(=O)N1CCN(c2ccc(OCC3COC(Cn4ccnc4)(c4ccc(Cl)cc4Cl)O3)cc2)CC1 (centres unmarked) [Ketoconazole, reference compound]

solubility at 1 h [5]: > 100 µM
SMILES: CC(C)NCC(O)COc1cccc2ccccc12 (centres unmarked) [Propranolol, reference compound]

IC50 ([2]; Mus musculus, B16-F1 in 90-Pa fibrin gels, treated on day 0, colony size on day 5): 1720 nM
SMILES: CCOC(=O)c1ccc(C#Cc2ccc3c(c2)C(C)(C)CCS3)nc1 [Tazarotene, reference compound]
Growth inhibition at 10 μM ([2]; 10 μM, treated on day 0, day 5, 10 µM): 71%
inhibition at 10 µM [2, 9]: 71.2%
Decrease of S phase of TRCs [4]: ~ 45%

SMILES: N.N.[Cl][Pt][Cl] [cisplatin]
TRCs not killed [6]: 20–30%

SMILES: COc1cccc2c1C(=O)c1c(O)c3c(c(O)c1C2=O)C[C@@](O)(C(=O)CO)C[C@@H]3O[C@H]1C[C@H](N)[C@H](O)[C@H](C)O1 [doxorubicin]
TRCs not killed [6]: 20–30%

IC50 [7]: 4.99 µM
SMILES: COc1ccc2[nH]c([S+]([O-])Cc3ncc(C)c(OC)c3C)nc2c1 (centres unmarked) [omeprazole, reference compound]

SMILES: COC(=O)CC[C@H](NC(=O)[C@H](CC(=O)OC)NC(=O)OCc1ccccc1)C(=O)N[C@H](C(=O)N[C@@H](CC(=O)OC)C(=O)CF)C(C)C [z-DEVD-FMK, reference compound]
Rescue of TRC growth from inhibitory effects of Tazarotene by pretreatment [2]: could not rescue growth
Rescue of TRC growth from inhibitory effects of WYC-209 by pretreatment [2]: substantially rescued growth
Rescue of A375 TRC growth from WYC-209 inhibition by pretreatment [8]: substantially rescued growth
